{"source": "ChEMBL document CHEMBL3045174", "about": "“Synthesis and Insecticidal Activity of Alkylated N-Benzoyl-N-Phenylureas and Their Toxicity to Aquatic Invertebrate” (J Pestic Sci, 1998)", "key": {"Plutella xylostella": {"test_system": "Plutella xylostella", "experiment": "Insecticidal activity against second or third-instar Plutella xylostella (diamondback moth) in compound treated cabbage leaves at 26 degC", "type": "functional"}, "Daphnia magna": {"test_system": "Daphnia magna", "experiment": "Toxicity in Daphnia magna assessed as […] concentration measured up to 48 hr", "type": "organism-based"}, "[1]": {"experiment": "Lipophilicity, log P of the compound by HPLC method", "type": "physicochemical"}}, "data": [{"smiles": "CC(C)N(C(=O)NC(=O)c1c(F)cccc1F)c1cc(Cl)c(Oc2ncc(C(F)(F)F)cc2Cl)c(Cl)c1", "values": [{"measurement": "LC90", "setting": "Plutella xylostella", "value": 0.8, "unit": "ppm"}]}, {"smiles": "CN(C(=O)c1c(F)cccc1F)C(=O)N(C)c1cc(Cl)c(Oc2ncc(C(F)(F)F)cc2Cl)c(Cl)c1", "values": [{"measurement": "LC90", "setting": "Plutella xylostella", "value": 0.3, "unit": "ppm"}, {"measurement": "EC50", "setting": "Daphnia magna", "value": "> 500", "unit": "ppb"}, {"measurement": "logP", "setting": "[1]", "value": 4.76}]}, {"smiles": "O=C(NC(=O)c1c(F)cccc1F)Nc1ccc(Oc2ccc(C(F)(F)F)cc2Cl)cc1F", "note": "[FLUFENOXURON]", "values": [{"measurement": "LC90", "setting": "Plutella xylostella", "value": 0.04, "unit": "ppm"}]}, {"smiles": "CN(C(=O)Nc1cc(Cl)c(Oc2ncc(C(F)(F)F)cc2Cl)c(Cl)c1)C(=O)c1c(F)cccc1F", "values": [{"measurement": "LC90", "setting": "Plutella xylostella", "value": 10, "unit": "ppm"}, {"measurement": "EC50", "setting": "Daphnia magna", "value": "> 500", "unit": "ppb"}, {"measurement": "logP", "setting": "[1]", "value": 7.26}]}, {"smiles": "O=C(NC(=O)c1c(F)cccc1F)Nc1cc(Cl)c(OC(F)(F)C(F)F)c(Cl)c1", "note": "[HEXAFLUMURON]", "values": [{"measurement": "LC90", "setting": "Plutella xylostella", "value": 0.04, "unit": "ppm"}]}, {"smiles": "CN(C(=O)NC(=O)c1c(F)cccc1F)c1ccc(Cl)cc1", "values": [{"measurement": "LC90", "setting": "Plutella xylostella", "value": 12.5, "unit": "ppm"}, {"measurement": "EC50", "setting": "Daphnia magna", "value": "> 500", "unit": "ppb"}]}, {"smiles": "CN(C(=O)NC(=O)c1c(F)cccc1F)c1ccc(Oc2ccc(C(F)(F)F)cc2Cl)c(F)c1", "values": [{"measurement": "LC90", "setting": "Plutella xylostella", "value": 0.04, "unit": "ppm"}, {"measurement": "EC50", "setting": "Daphnia magna", "value": 500, "unit": "ppb"}]}, {"smiles": "O=C(NC(=O)c1c(F)cccc1F)Nc1ccc(Cl)cc1", "note": "[DIFLUBENZURON]", "values": [{"measurement": "LC90", "setting": "Plutella xylostella", "value": 12.5, "unit": "ppm"}]}, {"smiles": "CN(C(=O)NC(=O)c1c(F)cccc1F)c1cc(Cl)c(Oc2ncc(C(F)(F)F)cc2Cl)c(Cl)c1", "values": [{"measurement": "LC90", "setting": "Plutella xylostella", "value": 0.08, "unit": "ppm"}, {"measurement": "EC50", "setting": "Daphnia magna", "value": 450, "unit": "ppb"}, {"measurement": "logP", "setting": "[1]", "value": 4.21}]}, {"smiles": "O=C(NC(=O)N(CC(F)(F)F)c1cc(Cl)c(Oc2ncc(C(F)(F)F)cc2Cl)c(Cl)c1)c1c(F)cccc1F", "values": [{"measurement": "LC90", "setting": "Plutella xylostella", "value": 1.25, "unit": "ppm"}]}, {"smiles": "CN(C(=O)NC(=O)c1c(F)cccc1F)c1ccc(-c2ccc(Br)cc2)cc1", "values": [{"measurement": "LC90", "setting": "Plutella xylostella", "value": 0.04, "unit": "ppm"}, {"measurement": "EC50", "setting": "Daphnia magna", "value": 150, "unit": "ppb"}]}, {"smiles": "O=C(NC(=O)c1c(F)cccc1F)Nc1cc(Cl)c(Oc2ncc(C(F)(F)F)cc2Cl)c(Cl)c1", "note": "[CHLORFLUAZURON]", "values": [{"measurement": "LC90", "setting": "Plutella xylostella", "value": 0.04, "unit": "ppm"}, {"measurement": "logP", "setting": "[1]", "value": 5.71}]}, {"smiles": "O=C(NC(=O)c1c(F)cccc1F)Nc1cc(Cl)c(F)c(Cl)c1F", "note": "[TEFLUBENZURON]", "values": [{"measurement": "LC90", "setting": "Plutella xylostella", "value": 0.02, "unit": "ppm"}]}, {"smiles": "CCN(C(=O)NC(=O)c1c(F)cccc1F)c1cc(Cl)c(Oc2ncc(C(F)(F)F)cc2Cl)c(Cl)c1", "values": [{"measurement": "LC90", "setting": "Plutella xylostella", "value": 0.3, "unit": "ppm"}]}, {"smiles": "CN(C(=O)NC(=O)c1c(F)cccc1F)c1cc(Cl)c(F)c(Cl)c1F", "values": [{"measurement": "LC90", "setting": "Plutella xylostella", "value": 0.15, "unit": "ppm"}, {"measurement": "EC50", "setting": "Daphnia magna", "value": "> 500", "unit": "ppb"}]}, {"smiles": "CN(C(=O)NC(=O)c1c(F)cccc1F)c1ccc(Oc2ccc(C(F)(F)F)cc2Cl)c(Cl)c1", "values": [{"measurement": "LC90", "setting": "Plutella xylostella", "value": 0.04, "unit": "ppm"}, {"measurement": "EC50", "setting": "Daphnia magna", "value": 100, "unit": "ppb"}]}, {"smiles": "O=C(NC(=O)N(Cc1ccccc1)c1cc(Cl)c(Oc2ncc(C(F)(F)F)cc2Cl)c(Cl)c1)c1c(F)cccc1F", "values": [{"measurement": "LC90", "setting": "Plutella xylostella", "value": 5, "unit": "ppm"}]}]}
